# Test results as given in article PMC4604765, “Eye drop delivery of pigment epithelium-derived factor-34 promotes retinal ganglion cell neuroprotection and axon regeneration” (Molecular and Cellular Neurosciences, 2015).
# No end group written: not given here.
# Test system: βIII-tubulin+ retinal neurons
# Assay: Neurite outgrowth in mixed adult rat retinal cultures (βIII-tubulin immunocytochemistry)
# Type: cell-based
# Text: For all in vitro experiments, adult 6–8-week-old female Sprague–Dawley rats weighing 170–220 g were used. Culture experiments included retinal cells treated with: (1), Neurobasal-A (NBA) alone (Control); and equimolar concentrations of (2), 2.16; (3) 5.4; (4), 10.8 and (5), 21.6 pM PEDF-34/-44; and (6), ciliary neurotrophic factor (CNTF: Peprotech, London, UK), as a positive control at an optimal neuroprotective/axogenic concentration of 440.5 pM, established by us previously ([Ahmed et al., 2009; Douglas et al., 2009]). […] All experiments were performed in triplicate and repeated on three independent occasions.
# Mixed adult rat retinal cultures containing enriched populations of retinal neurons, including RGCs, were prepared from 6–8-week-old adult female Sprague–Dawley rats, as described previously ([Ahmed et al., 2006b, 2009, 2010; Douglas et al., 2009; Vigneswara et al., 2013]). Briefly, retinal cells were dissociated using a Papain dissociation kit according to the manufacturer's instructions (Worthington Biochemicals, Lakewood, NJ, USA). Retinal cells were plated at a density of 125 × 10^3/well in poly-D-lysine and laminin pre-coated 8-well chamber slides and cultured in NBA supplemented with B27 supplement (all from Invitrogen, Paisley, UK), with appropriate treatments for 4 days at 37 °C and 5% CO2 before fixation in 4% paraformaldehyde diluted in PBS for immunocytochemistry, as described previously ([Vigneswara et al., 2013, 2014]).
# Fixed cells were washed in several changes of PBS before permeabilisation and blocking of non-specific antibody sites with PBS containing 3% bovine serum albumin (BSA) and 0.1% Triton X-100 (both from Sigma, Poole, UK). Cells were then incubated with monoclonal anti-βIII-tubulin antibody (1:200 dilution; Sigma) for 1 h at room temperature (RT) to detect retinal neurons and their neurites. Cells were then washed in several changes of PBS and incubated with Alexa 488 anti-mouse IgG (1:400 dilution; Invitrogen) for 1 h at RT. After washing in several changes of PBS and mounting in Vectamount containing DAPI (Vector Laboratories, Peterborough, UK), cells were then viewed using a Zeiss epi-fluorescent microscope equipped with an AxioCam HRc and Axiovision Image capture software (all from Zeiss, Hertfordshire, UK). Immunocytochemistry included controls with primary antibody omitted, to set background levels of nonspecific staining (not shown) before image capture.
# The mean number of βIII-tubulin^+ neurons surviving, with neurites and the mean neurite length were quantified as described by us previously ([Vigneswara et al., 2013, 2014]). Briefly, chamber slides were anonymised by a second investigator and βIII-tubulin^+ neuronal soma and neurites quantified in 9 quadrants/well using Axiovision software (Version 4.8; Zeiss) and ImagePro (Version 6.3; Media Cybernetics, Bethesda, MD, USA). Of the 125,000 cells/well plated, the total numbers of neurons in each experiment were determined by βIII-tubulin^+ immunocytochemistry after allowing 30 min for cells to adhere to glass culture slides. This determines the number of neurons plated/well and is used in each experiment to work out the proportion of surviving βIII-tubulin^+ neurons. Neurite outgrowth from at least 180 neurons/condition from the 9 wells was measured, except in control (NBA) cultures, in which a total of 108 neurons were measured.
# [1] = 5.4 pM (peak), 4 days in culture
sequence,measurement,setting,value
DPFFKVPVNKLAAAVSNFGYDLYRVRSSTSPTTN [PEDF-34],mean neurite length,[1],211 ± 23 μm
same,mean proportion of βIII-tubulin+ neurons with neurites,[1],21 ± 2%
same,fold longer neurites than in CNTF cultures,PEDF-34 versus CNTF (440.5 pM),2.2 fold
same,fold more βIII-tubulin+ neurons with neurites than in CNTF cultures,PEDF-34 versus CNTF (440.5 pM),10.5 fold
same,fold longer neurites than in PEDF-44 cultures,PEDF-34 versus PEDF-44,1.7 fold
same,fold more βIII-tubulin+ neurons with neurites than in PEDF-44 cultures,PEDF-34 versus PEDF-44,2.3 fold
same,more neuritogenic than PEDF-44 in vitro,"PEDF-34 versus equimolar PEDF-44, retinal cultures",52%
same,fold longer neurites than in untreated cultures,PEDF-34 versus untreated,6.3 fold
same,fold more βIII-tubulin+ neurons with neurites than in untreated cultures,PEDF-34 versus untreated,21 fold
same,retinal neuron/RGC neuritogenesis/axogenesis compared to untreated controls,statement in discussion,Five-fold more
